The test system of one data set is phosphatidylserine (PS). Nature of the data set: Recursive stimulation plate assay: IFN-γ on serial phosphatidylserine exposure. The format is cell-based. The conditions noted are these: 3 serial rounds. The text has this: FIGS. 19A-19C: CER T cells are activated and produce IFN-γ in response to phosphatidylserine engagement in a cell-free in vitro system. FIG. 19A: IFN-γ production in response phosphatidylserine (PS). IFN-γ production was induced in CER-1236 and CER-1234 T cells stimulated with PS (FIG. 19A), but not with phosphatidylethanolamine (PE) (FIG. 19B). […] FIG. 19C: CER1236 T cells are capable of recursive stimulation in vitro. Recursive IFN-γ induction with 3 serial stimulations at the indicated time points following a 24-hour rest after the first stimulation.
FIG. 43 is a schematic depicting assay design for measuring CER1236 reactivation in response to stimulus by repeated phosphatidylserine stimulation of CER1236 T cells and measurement of IFNγ production.
CER T-cell activation was assessed by measuring induction of IFN-gamma by plate- and cell-based assays. […] CER T cells were added and IFN-γ levels were measured 24 hours after ligand exposure by ELISA. EC50 concentrations were determined by nonlinear regression (agonist vs. response-variable slope (4 parameters)). […] Cell-based assay: cytokine induction was assessed by multiparametric ELISA using conditioned supernatants harvested after 120 hours from the cytotoxicity assay described below.

The subject of a further data set is A2780 cells. The conditions noted are these: for A2780 cells eliminated, single agent: compared to untreated; for A2780 cells eliminated, combination with niraparib: niraparib 0.5 μM; for A2780 cells eliminated, combination with niraparib / A2780 cells eliminated, combination with olaparib: after 5 days of co-culture; for A2780 cells eliminated, combination with olaparib: olaparib 1.5 μM. The protocol:
FIG. 34B: At 120 hours, the ratio of cells remaining in treated samples compared to untreated A2780 samples was quantified using the incucyte data from FIG. 34A. FIG. 34C: Proliferation of CER T cells in co-culture assays.
At day 0, media was exchanged and donor T cells from three subjects (FIG. 28) transduced with CER-1234, CER-1236, or control CER-1183 (FIG. 27A) were added at various effector:target ratios to A2780 cells treated with PARPi to assess chimeric Tim4 receptor-T cell activation, cytokine production, proliferation, and cytotoxic responses. Chimeric Tim4 receptor-T cells immunophenotyping and bulk supernatant analysis was performed on day 2 and day 5 following initiation of co-culture.
CER T-cell cytotoxic function was evaluated using the Incucyte® live-cell analysis system in co-culture assays with A2780 cells. A2780 cells engineered to constitutively express mCherry were pretreated with 1.5 μM olaparib, 0.5 μM niraparib or no drug for 96 hours. CER T cells (expanded for 6 days after transduction) in T-cell optimizer media containing IL-2, IL-7, and IL-15 were co-cultured with A2780 cells at an effector:target (E:T) ratio of 1:2 in the presence of the same concentrations of olaparib or niraparib.

A further data set deals with NSCLC H1975 cells. Nature of the data set: T cell expansion in H1975 co-culture with osimertinib (quantitative flow cytometry). The format is cell-based. The protocol:
FIG. 41: Bar graphs showing fold expansion of total CD3+ T cells (untransduced+vehicle, untransduced+osimertinib, CER1236+vehicle, CER1236+osimertinib) determined by quantitative flow cytometry using quantitation beads over a time course (48 hrs, 96 hrs, 120 hrs, and 144 hrs).
FIG. 42: Flow cytometry plots measuring CD3+ cells (y-axis) and H1975 cell (x-axis) in co-culture experiments with H1975 cells pretreated with vehicle or osimertinib ([…], 19.53 nM) and untransduced T cells (top row) or CER1236 T cells (bottom row).
Proliferation of CER1236 T cells co-cultured with H1975 NSCLC cells pre-treated with osimertinib or vehicle was also measured. […] Total CD3+ T cells fold expansion was determined by quantitative flow cytometry using quantitation beads over a time course (48 hrs, 96 hrs, 120 hrs, and 144 hrs). Experiment was performed twice, once with 5,000 target H1975 cells and once with 10,000 target H1975 cells.
On the technique in general: Flow cytometry measures light scatter and fluorescence of single cells or particles in a stream.

Another data set deals with Jeko1 TMEM30A−/− cells. The settings on record: mantle cell lymphoma mouse model.
The test system of a further data set is REC-1 cells. Nature of the data set: T-cell activation markers PD-1 and 4-1BB in co-culture with REC-1 cells (flow cytometry). Format: cell-based. The settings on record: co-culture with REC-1 cells in the presence of 0.5 μM ibrutinib, 96 hours. The protocol:
FIGS. 15A-15B: Induction of Cell-Surface Markers of T-Cell Activation in Ibrutinib-Treated Co-Cultures of CER1183 and CER1234 T cells and REC-1 Target Cells. Samples depicted in bar graphs from left to right, untransduced, CER-1183, and CER-1234. FIG. 15A: PD-1 expression in co-cultures. FIG. 15B: 4-1BB expression in co-cultures.
T-cell activation markers programmed death-1 (PD-1) and 4-1BB were evaluated on viable CD3+ T cells by flow cytometry using commercially available fluorochrome-conjugated antibodies. […] Assays were conducted 96 hours after initiation of co-culture of CER T cells with REC-1 cells.

Method for Jeko1 TMEM30A−/− cells: Using an engineered TMEM30a phospholipid flippase knockout JeKo-1 lymphoma cell line with constitutive phosphatidylserine exposure (JeKo-1 PS^+), tumor fragment uptake, cytotoxicity, cytokine secretion (GrB, IFN-γ, and TNF-α), and APC-like activity were evaluated in vitro. JeKo-1 PS^+ cells were labeled with the pH-sensitive pHrodo™ dye to quantify the uptake of tumor cells. Chimeric Tim4 receptor-T cells were tested for antigen-display capacity by evaluating autologous HPV E7 TCR T cell activation and proliferation following Chimeric Tim4 receptor-T cell co-culture with JeKo PS+ cells and HPV-derived peptides. Finally, Chimeric Tim4 receptor T cell anti-tumor activity was examined in xenografted MCL models. Statistical analysis was performed using 2-way ANOVA.

For the substance “CER-1236: chimeric Tim4 receptor: Tim4 binding domain-CD28tm-CD28-CD3z-TLR2 TIR, SEQ ID NO:19; tested as transduced T cells”, the “IFN-γ response upon serial phosphatidylserine exposure” value in the data set on phosphatidylserine (PS) was “elicited repeated IFN-γ response upon 3 serial rounds of exposure to phosphatidylserine”. Besides, in the data set with A2780 cells, the “cytotoxic activity of CER T cells alone against A2780 cells” value is given as “limited cytotoxic activity”; the “A2780 cells eliminated, single agent” value turned out to be 19%; the “A2780 cells eliminated, combination with niraparib” value stood at 81%; the “A2780 cells eliminated, combination with olaparib” value worked out at 73%. Further, the “CD3+ T cell proliferation and H1975 cell numbers, osimertinib-treated H1975” value in the data set with NSCLC H1975 cells (120 hours, 4:1 effector:target ratio, flow cytometry) is “CD3+ T cell proliferation was highest and H1975 cell numbers lowest”. The “total CD3+ T cells fold expansion, combination with osimertinib” value in the data set with NSCLC H1975 cells (E:T 1:4, 48, 96, 120, 144 hrs) was “osimertinib drives CER1236 T cell proliferation”. The “anti-tumor effect / tumor burden” value in the data set on Jeko1 TMEM30A−/− cells is “showed anti-tumor effect”.

Take “CER-1234: chimeric Tim4 receptor: Tim4 binding domain-CD28tm-CD28-TLR2 TIR-CD3z, SEQ ID NO:18; tested as transduced T cells”: the “PD-1 and 4-1BB expression on the T-cell surface” value with REC-1 cells is “increased PD-1 and 4-1BB expression”. Besides, in the data set with A2780 cells, the “cytotoxic activity of CER T cells alone against A2780 cells” value was “limited cytotoxic activity”; the “A2780 cells eliminated, single agent” value came to 39%; the “A2780 cells eliminated, combination with niraparib” value is listed as 58%; the “A2780 cells eliminated, combination with olaparib” value was 66%.

For the origin of these results see patent US20250127896A1, “CHIMERIC TIM4 RECEPTORS AND USES THEREOF” (CERO THERAPEUTICS HOLDINGS, INC., priority 2021, published 2025).
